Data set [1] in a line: Metabolic stability in human liver microsomes. It is filed as in vitro ADME. As to conditions: 5 μM compound, 1 mg/mL human liver microsomes, 37° C., NADPH regenerating system. As to the method:
(§1) In order to confirm the metabolic stability of the synthetic compounds in the liver, 5 μM test compound and 1 mg/mL human, dog, rat or mouse liver microsomes were allowed to react with each other at 37° C. in the presence of the NADPH regenerating system for 1 hour. After 1 hour, the reaction was terminated and the supernatant obtained by centrifugation was analyzed by HPLC. With the peak value obtained as the analysis result, the residual amount (%) was calculated using the following equation through the peak value of the test compound after 1 hour of the reaction versus the peak value of the test compound at 0 min. Residual amount (%)=(peak value of test compound after 1 hour of reaction/peak value of test compound at 0 min)×100
(Liver microsomes are vesicles of endoplasmic reticulum, rich in cytochrome P450 enzymes.)

Data set [2] is described as follows: Metabolic stability in mouse liver microsomes. It is filed as in vitro ADME. As to conditions: 5 μM compound, 1 mg/mL mouse liver microsomes, 37° C., NADPH regenerating system. As to the method: as §1
The next data set addresses T1, EZH1 (Homo sapiens, UniProt Q92800).
T1 construct: purchased Reaction Biology Corp. (contract assay)
Description: Inhibitory activity against EZH1 methyltransferase (radiometric scintillation proximity assay).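 Note: Read-out is methylation of a substrate peptide, captured on streptavidin-coated SPA beads and counted by scintillation, in Tris-HCl buffer at pH 8.0 with 1% DMSO.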 The note with it: 2.3 nmol/L enzyme, 90 minutes, room temperature. It is filed as biochemical. (In general: Scintillation proximity formats need no separation of bound from free tracer.)

A further data set addresses EZH2 (Homo sapiens, UniProt Q15910). Description: Inhibitory activity against EZH2 methyltransferase (radiometric scintillation proximity assay).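 Note: Read-out is substrate peptide methylation, captured on streptavidin-coated SPA beads and counted by scintillation, with the reaction run in Tris-HCl buffer at pH 8.0 containing 1% DMSO.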 As to conditions: Enzyme inhibitory activity (IC50, nM) EZH2, 2.3 nmol/L enzyme, 90 minutes, room temperature.
Data set [3] concerns KARPAS-422 (EZH2 Y641N mutation). The experiment in a line: Cell growth inhibition test, KARPAS-422. It is filed as cell-based. The note with it: KARPAS-422, culture time 7 days, read-out: Cell growth inhibitory activity (GI50, nM) KARPAS-422 (EZH2 Y641N mutation).
The subject of data set [4] is Pfeiffer (EZH2 A677G mutation). Description: Cell growth inhibition test, Pfeiffer. The note with it: Homo sapiens, read-out: Cell growth inhibitory activity (GI50, nM) Pfeiffer (EZH2 A677G mutation). It is filed as cell-based. The protocol:
Each type of the cultured cells was seeded in 6-well plates or 48-96 well plates, and subculture or medium replacement was performed every 3 to 4 days. Next, the cells were subcultured for a total of 7 to 14 days, and then seeded in 96-well plates. 3 to 5 days before the measurement of the effect, the cells were seeded in 96-well plates, and then the absorbance (Tz) on the day of seeding was measured. The absorbance after the reaction was measured by the plate reader device Synergy NeoAlpha (Biotek) using Cell-Titer-Glo Cell Viability Assay (Promega, G7573) according to the attached manual. Based on the absorbance (Tz) measured on the seeding day and the absorbance of each of the DMSO-treated group (C) and the sample-added group (Ti) measured on the day of effect determination, the percentage of cell proliferation inhibition was calculated according to the following Equation 1. [(Ti−Tz)/(C−Tz)]×100 for concentrations for which Ti≥Tz […] for concentrations for which Ti<Tz. [Equation 1]

A short description of data set [5]: Mouse pharmacokinetics, oral single dose. It is filed as in vivo. As to conditions: mice (ICR, male), oral single dose 30 mg/kg, plasma, 30 mg/kg; for AUC: read-out: Area under oral curve (AUC). The protocol: Pharmacokinetics of the synthetic compounds as EZH2 inhibitors in mice (ICR, 8-week-old, male) were tested.
The oral administration group was maintained in a fasting state from the day before the test to 4 hours after administration of the test compound. On the day of administration of the test compound, the weight of each animal was measured and each synthetic compound was formulated using a selected solvent based on 30 mg/kg (10 mL/kg). Each test compound was administered orally in a single dose, a certain amount of the blood was taken at a predetermined time, plasma was isolated therefrom, and the concentration of each test compound in the plasma was analyzed using LC-MS/MS (Waters UPLC H-Class/Xevo TQ; Waters, USA). Pharmacokinetic coefficients were calculated by a linear-log trapezoidal summation formula using a non-compartment analysis of the Phoenix™ WinNonlin (Certara, USA) program through the plasma concentration curve over time.

The mark [6] stands for this setting: Homo sapiens, KARPAS-422, 168 h.

Where two headings read alike, the source gives them in different places.

In general, IC50 refers to the concentration needed to halve the response being measured. A low value points to greater potency. In general, GI50 refers to the concentration giving 50% growth inhibition. Usually AUC stands for the area under the concentration-time curve, a measure of exposure.

Sequence of EZH2 (Q15910 whole entry): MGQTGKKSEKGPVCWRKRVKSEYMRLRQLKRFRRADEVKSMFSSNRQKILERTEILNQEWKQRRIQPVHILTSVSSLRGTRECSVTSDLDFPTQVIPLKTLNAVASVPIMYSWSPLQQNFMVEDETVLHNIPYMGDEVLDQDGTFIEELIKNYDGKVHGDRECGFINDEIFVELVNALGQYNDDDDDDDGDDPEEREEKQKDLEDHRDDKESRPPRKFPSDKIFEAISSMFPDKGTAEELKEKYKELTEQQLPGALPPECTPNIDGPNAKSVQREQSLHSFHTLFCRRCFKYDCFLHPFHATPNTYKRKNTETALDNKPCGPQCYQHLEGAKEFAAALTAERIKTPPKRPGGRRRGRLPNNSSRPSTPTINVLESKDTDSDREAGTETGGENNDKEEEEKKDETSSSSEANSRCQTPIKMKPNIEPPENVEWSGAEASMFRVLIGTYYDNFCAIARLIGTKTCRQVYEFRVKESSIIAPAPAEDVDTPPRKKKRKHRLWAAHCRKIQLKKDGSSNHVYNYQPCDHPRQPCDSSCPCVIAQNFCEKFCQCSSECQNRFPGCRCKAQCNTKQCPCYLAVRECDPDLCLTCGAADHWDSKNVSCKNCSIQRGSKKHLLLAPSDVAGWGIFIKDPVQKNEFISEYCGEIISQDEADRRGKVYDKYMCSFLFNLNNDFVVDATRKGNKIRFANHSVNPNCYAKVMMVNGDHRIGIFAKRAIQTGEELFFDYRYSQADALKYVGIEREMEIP
Sequence of EZH2 (O75530 whole entry partner): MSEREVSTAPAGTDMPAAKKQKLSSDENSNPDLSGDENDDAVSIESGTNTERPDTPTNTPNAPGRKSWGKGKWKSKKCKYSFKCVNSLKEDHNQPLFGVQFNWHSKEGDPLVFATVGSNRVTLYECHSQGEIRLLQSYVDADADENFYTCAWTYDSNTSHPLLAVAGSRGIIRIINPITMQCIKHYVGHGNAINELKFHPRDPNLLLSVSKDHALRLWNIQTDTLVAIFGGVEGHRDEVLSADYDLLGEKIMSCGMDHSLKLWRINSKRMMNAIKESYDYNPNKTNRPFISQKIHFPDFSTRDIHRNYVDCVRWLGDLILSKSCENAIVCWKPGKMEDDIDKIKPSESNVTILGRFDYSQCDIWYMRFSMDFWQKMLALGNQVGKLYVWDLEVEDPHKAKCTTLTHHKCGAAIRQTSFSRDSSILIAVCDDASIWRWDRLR
Sequence of EZH2 (Q15022 whole entry partner): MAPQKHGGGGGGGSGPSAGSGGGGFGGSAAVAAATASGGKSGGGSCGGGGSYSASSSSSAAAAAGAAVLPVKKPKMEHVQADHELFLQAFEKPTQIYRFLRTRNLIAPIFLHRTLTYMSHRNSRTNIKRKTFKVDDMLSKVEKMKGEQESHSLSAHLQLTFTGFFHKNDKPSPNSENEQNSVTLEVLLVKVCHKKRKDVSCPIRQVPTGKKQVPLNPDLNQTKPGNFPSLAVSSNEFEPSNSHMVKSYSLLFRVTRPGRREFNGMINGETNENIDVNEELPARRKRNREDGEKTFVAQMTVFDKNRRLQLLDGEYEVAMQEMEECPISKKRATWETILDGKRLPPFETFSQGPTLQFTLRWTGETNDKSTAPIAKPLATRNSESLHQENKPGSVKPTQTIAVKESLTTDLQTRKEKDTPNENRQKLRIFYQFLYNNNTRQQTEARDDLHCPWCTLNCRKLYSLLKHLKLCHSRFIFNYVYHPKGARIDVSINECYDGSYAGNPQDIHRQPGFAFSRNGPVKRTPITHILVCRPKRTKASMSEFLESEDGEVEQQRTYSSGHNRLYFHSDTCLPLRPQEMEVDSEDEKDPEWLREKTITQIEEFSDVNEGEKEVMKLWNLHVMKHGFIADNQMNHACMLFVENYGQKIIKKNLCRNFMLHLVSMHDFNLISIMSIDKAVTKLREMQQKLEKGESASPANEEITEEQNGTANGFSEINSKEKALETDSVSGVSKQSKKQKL
Sequence of EZH2 (Q09028 whole entry partner): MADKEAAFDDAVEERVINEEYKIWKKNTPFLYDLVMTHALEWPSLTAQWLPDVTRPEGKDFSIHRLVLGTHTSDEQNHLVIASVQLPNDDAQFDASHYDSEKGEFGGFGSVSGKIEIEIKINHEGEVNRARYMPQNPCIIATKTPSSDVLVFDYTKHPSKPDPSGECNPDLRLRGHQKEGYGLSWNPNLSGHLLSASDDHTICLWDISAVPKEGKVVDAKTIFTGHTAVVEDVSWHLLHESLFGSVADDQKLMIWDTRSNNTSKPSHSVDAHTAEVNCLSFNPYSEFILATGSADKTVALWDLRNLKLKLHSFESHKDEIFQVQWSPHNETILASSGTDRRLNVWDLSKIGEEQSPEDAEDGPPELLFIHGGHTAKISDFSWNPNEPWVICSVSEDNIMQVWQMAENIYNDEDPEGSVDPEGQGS
Sequence of EZH2 (Q6ZN18 whole entry partner): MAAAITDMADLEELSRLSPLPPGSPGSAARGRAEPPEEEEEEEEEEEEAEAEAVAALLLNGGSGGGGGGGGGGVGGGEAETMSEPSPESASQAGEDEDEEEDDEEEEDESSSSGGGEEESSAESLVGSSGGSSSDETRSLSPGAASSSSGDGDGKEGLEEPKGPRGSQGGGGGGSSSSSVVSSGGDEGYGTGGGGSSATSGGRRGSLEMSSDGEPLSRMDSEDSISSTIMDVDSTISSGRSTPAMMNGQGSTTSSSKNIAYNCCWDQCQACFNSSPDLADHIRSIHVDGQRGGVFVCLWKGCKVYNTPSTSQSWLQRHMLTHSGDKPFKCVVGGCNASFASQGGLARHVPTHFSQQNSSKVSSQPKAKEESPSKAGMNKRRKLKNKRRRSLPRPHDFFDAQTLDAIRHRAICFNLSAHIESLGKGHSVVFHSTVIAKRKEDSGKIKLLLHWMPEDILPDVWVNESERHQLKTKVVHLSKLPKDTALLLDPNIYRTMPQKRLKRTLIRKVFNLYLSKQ
T1 sequence (Q92800 whole entry): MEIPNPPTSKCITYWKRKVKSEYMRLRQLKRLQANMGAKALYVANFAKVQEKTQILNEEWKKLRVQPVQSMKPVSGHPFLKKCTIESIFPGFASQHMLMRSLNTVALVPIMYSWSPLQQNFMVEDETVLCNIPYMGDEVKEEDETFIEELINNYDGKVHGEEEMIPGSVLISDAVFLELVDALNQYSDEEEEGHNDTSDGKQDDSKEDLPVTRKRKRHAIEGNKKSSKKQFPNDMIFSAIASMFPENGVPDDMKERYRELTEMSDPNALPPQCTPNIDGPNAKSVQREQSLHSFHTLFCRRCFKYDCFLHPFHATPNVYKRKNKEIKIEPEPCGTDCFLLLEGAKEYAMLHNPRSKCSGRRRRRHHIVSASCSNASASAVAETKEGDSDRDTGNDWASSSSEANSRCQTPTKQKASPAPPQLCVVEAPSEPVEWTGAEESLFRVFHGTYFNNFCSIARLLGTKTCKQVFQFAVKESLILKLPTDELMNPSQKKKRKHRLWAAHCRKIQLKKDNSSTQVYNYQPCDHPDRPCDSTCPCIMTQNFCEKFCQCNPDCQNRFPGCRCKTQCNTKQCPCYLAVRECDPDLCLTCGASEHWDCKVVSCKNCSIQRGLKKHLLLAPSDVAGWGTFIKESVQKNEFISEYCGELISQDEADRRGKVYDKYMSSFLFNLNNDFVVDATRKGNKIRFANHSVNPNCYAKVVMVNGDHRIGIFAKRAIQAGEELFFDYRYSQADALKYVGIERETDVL
T1 sequence (O75530 whole entry partner): as the sequence (O75530 whole entry partner) above
T1 sequence (Q15022 whole entry partner): as the sequence (Q15022 whole entry partner) above
T1 sequence (Q09028 whole entry partner): as the sequence (Q09028 whole entry partner) above
T1 sequence (Q6ZN18 whole entry partner): as the sequence (Q6ZN18 whole entry partner) above
Description for EZH1: The inhibitory activities of the synthetic compounds against EZH1 or EZH2 methyltransferase were measured. The experiment was conducted by Reaction Biology Corp., and the activity of EZH1 or EZH2 was measured using a radiometric scintillation proximity assay. […] The reaction buffer consisted of 50 mmol/L Tris-HCl (pH 8.0), 50 mmol/L NaCl, 1 mmol/L EDTA, 1 mmoL/L DTT, 1 mmol/L PMSF, and 1% DMSO. Trichloroacetic acid was added to terminate the reaction, and PVT streptavidin-coated SPA beads were added to each reaction solution, followed by further reaction at room temperature for 1 hour again. The methylation value of the substrate peptide was measured using the TopCount NXT plate reader.

Regarding `Cc1cc(C)c(CN2CCc3c(Cl)c4c(c(C)c3C2=O)OC(C)([C@H]2CC[C@H](N(C)C)CC2)O4)c(=O)[nH]1` (single isomer, unassigned) [Compound 10, 9-chloro-6-((4,6-dimethyl-2-oxo-1,2-dihydropyridin-3-yl)methyl)-2-(trans-4-(dimethylamino)cyclohexyl)-2,4-dimethyl-7,8-dihydro-[1,3]dioxolo[4,5-g]isoquinolin-5(6H)-one], the “Residual amount (%) of test compound after 1 hour of reaction, Human” value (shortened to “Residual amount (%) of test compound … Human”) in data set [1] turned out to be 79%. Further, in data set [2], the “Residual amount (%) of test compound after 1 hour of reaction, Mouse” value (from here on “Residual amount (%) of test compound … Mouse”) is 55%. For the same compound, the results for the IC50 at EZH1 and at EZH2 were 10 to 21 nM and 0.8 to 1.4 nM, respectively. For the same compound, the GI50 in data set [3] is 2.5 to 13 nM; in data set [4] it was 0.84 nM.
With `Cc1cc(C)c(CN2CCc3c(C)c4c(c(C)c3C2=O)OC(C)([C@H]2CC[C@H](N(C)C)CC2)O4)c(=O)[nH]1` (single isomer, unassigned) [Compound 40, 6-((4,6-dimethyl-2-oxo-1,2-dihydropyridin-3-yl)methyl)-2-(trans-4-(dimethylamino)cyclohexyl)-2,4,9-trimethyl-7,8-dihydro-[1,3]dioxolo[4,5-g]isoquinolin-5(6H)-one], the “Residual amount (%) of test compound … Human” value in data set [1] was 82%. Moreover, the “Residual amount (%) of test compound … Mouse” value in data set [2] amounted to 84%. Further, the IC50 at EZH1 was 28 nM; at EZH2, 1.8 nM. The GI50 in data set [3] stood at 1.8 nM; in data set [4], 0.71 nM.
For `Cc1cc(C)c(CN2CCc3c(Br)c4c(c(C)c3C2=O)OC(C)([C@H]2CC[C@H](N(C)C)CC2)O4)c(=O)[nH]1` (single isomer, unassigned) [Compound 50, 9-bromo-6-((4,6-dimethyl-2-oxo-1,2-dihydropyridin-3-yl)methyl)-2-(trans-4-(dimethylamino)cyclohexyl)-2,4-dimethyl-7,8-dihydro-[1,3]dioxolo[4,5-g]isoquinolin-5(6H)-one], in data set [5], the “Area under oral curve (AUC)” value was 12,239 ng · hr/mL and the “Half life T1/2” value stood at 2.5 h. Also, the “Residual amount (%) of test compound … Human” value in data set [1] was 35%. The “Residual amount (%) of test compound … Mouse” value in data set [2] stood at 54%. Further, the GI50 in data set [3] was found to be 419 nM.
As for `Cc1cc(C)c(CN2CCc3c(C)c4c(c(Cl)c3C2=O)OC(C)([C@H]2CC[C@H](N(C)C)CC2)O4)c(=O)[nH]1` (stereo partly shown) [Compound 4], in data set [5] (male, ICR, mouse, po), the AUC worked out at 770 ng·h/mL. Also, the “Residual amount (%) of test compound … Human” value in data set [1] turned out to be 84%. Further, the “Residual amount (%) of test compound … Mouse” value in data set [2] is 79%. The IC50 at EZH1 came out at 20 nM; at EZH2, 2.6 nM. Further, the GI50 in data set [3] (setting [6]) was 1.9 to 2.6 nM.
For `Cc1cc(C)c(CN2CCc3c(Cl)c4c(c(C)c3C2=O)OC(C)([C@H]2CC[C@@H](N(C)C)CC2)O4)c(=O)[nH]1` (stereo partly drawn) [Compound 12, 9-chloro-6-((4,6-dimethyl-2-oxo-1,2-dihydropyridin-3-yl)methyl)-2-(cis-4-(dimethylamino)cyclohexyl)-2,4-dimethyl-7,8-dihydro-[1,3]dioxolo[4,5-g]isoquinolin-5(6H)-one], the “Residual amount (%) of test compound … Human” value in data set [1] was determined as 57%. Further, the “Residual amount (%) of test compound … Mouse” value in data set [2] is reported as 61%. Moreover, the figures for the IC50 against EZH1 and against EZH2 were 23 to 50 nM and 3.2 nM, respectively. In addition, the results for the GI50 in data set [3] (setting [6]) and in data set [4] were 4.9 to 15 nM and 0.66 nM, respectively.
As for `CN[C@H]1CC[C@H](C2(C)Oc3c(C)c4c(c(Cl)c3O2)CCN(Cc2c(C)cc(C)[nH]c2=O)C4=O)CC1` (stereo partly drawn) [Compound 34, 9-chloro-6-((4,6-dimethyl-2-oxo-1,2-dihydropyridin-3-yl)methyl)-2,4-dimethyl-2-(trans-4-(methylamino)cyclohexyl)-7,8-dihydro-[1,3]dioxolo[4,5-g]isoquinolin-5(6H)-one], the “Residual amount (%) of test compound … Human” value in data set [1] is 66%. Also, in data set [2], the “Residual amount (%) of test compound … Mouse” value came out at 100%. Further, the results for the half-inhibitory concentration (IC50) against EZH1 and against EZH2 were 9.7 nM and 1.4 nM, respectively. The GI50 in data set [3] (setting [6]) amounted to 3.2 nM; in data set [4] it was 1.48 nM.
`COc1cc(C)[nH]c(=O)c1CN1CCc2c(C)c3c(c(C)c2C1=O)OC(C)([C@H]1CC[C@H](N(C)C)CC1)O3` (stereo partly drawn) [Compound 42, 2-(trans-4-(dimethylamino)cyclohexyl)-6-((4-methoxy-6-methyl-2-oxo-1,2-dihydropyridin-3-yl)methyl)-2,4,9-trimethyl-7,8-dihydro-[1,3]dioxolo[4,5-g]isoquinolin-5(6H)-one]: the “Residual amount (%) of test compound … Human” value in data set [1] is 74%. Moreover, the “Residual amount (%) of test compound … Mouse” value in data set [2] was found to be 88%. The IC50 on EZH1 was in the range of 31 to 34 nM; at EZH2, 3.4 to 6 nM. In addition, the GI50 fell in the range of 2.6 to 8.8 nM in data set [3] (setting [6]) and 0.97 to 1.41 nM in data set [4].
As to `CCCc1cc(C)[nH]c(=O)c1CN1CCc2c(C)c3c(c(C)c2C1=O)OC(C)([C@H]1CC[C@H](N(C)C)CC1)O3` (stereo partly shown) [Compound 43], the “Residual amount (%) of test compound … Human” value in data set [1] amounted to 52%. The “Residual amount (%) of test compound … Mouse” value in data set [2] came to 61%. For the same compound, the results for the IC50 against EZH1 and against EZH2 were 8.1 nM and 1.4 nM, respectively. Further, the GI50 in data set [3] (setting [6]) is 58 nM; in data set [4], 6.76 nM.
In the case of `Cc1cc(C)c(CN2CCc3c(Br)c4c(c(C)c3C2=O)OC(C)([C@H]2CC[C@H](N(C)C)CC2)O4)c(=O)[nH]1` (stereo partly drawn) [Compound 48, 9-bromo-6-((4,6-dimethyl-2-oxo-1,2-dihydropyridin-3-yl)methyl)-2-(trans-4-(dimethylamino)cyclohexyl)-2,4-dimethyl-7,8-dihydro-[1,3]dioxolo[4,5-g]isoquinolin-5(6H)-one], in data set [5] (male, ICR, mouse, po), the AUC lay within 17300 to 18700 ng·h/mL. Also, the half-life in data set [5] (male, ICR, mouse, po, read-out: Half life T1/2 (converted)) is 2.8 to 3.2 h. In addition, the “Residual amount (%) of test compound … Human” value in data set [1] is on record as 54%. The “Residual amount (%) of test compound … Mouse” value in data set [2] is 52%. Besides, the GI50 was 3.7 to 12.4 nM in data set [3] (setting [6]) and 0.77 nM in data set [4].
For the compound `CN[C@H]1CC[C@H](C2(C)Oc3c(C)c4c(c(Br)c3O2)CCN(Cc2c(C)cc(C)[nH]c2=O)C4=O)CC1` (stereo partly drawn) [Compound 51, 9-bromo-6-((4,6-dimethyl-2-oxo-1,2-dihydropyridin-3-yl)methyl)-2,4-dimethyl-2-(trans-4-(methylamino)cyclohexyl)-7,8-dihydro-[1,3]dioxolo[4,5-g]isoquinolin-5(6H)-one], in data set [5] (male, ICR, mouse, po), the AUC stood at 1520 ng·h/mL. Moreover, in data set [1], the “Residual amount (%) of test compound … Human” value is recorded as 70%. Besides, the “Residual amount (%) of test compound … Mouse” value in data set [2] was found to be 64%. The IC50 was 41 nM on EZH1 and 1.6 nM against EZH2. Also, the GI50 in data set [3] (setting [6]) came to 4.4 nM.
On to `C#Cc1c2c(c(C)c3c1OC(C)([C@H]1CC[C@H](N(C)C)CC1)O3)C(=O)N(Cc1c(C)cc(C)[nH]c1=O)CC2` (stereo partly drawn) [Compound 53, 6-((4,6-dimethyl-2-oxo-1,2-dihydropyridin-3-yl)methyl)-2-(trans-4-(dimethylamino)cyclohexyl)-9-ethynyl-2,4-dimethyl-7,8-dihydro-[1,3]dioxolo[4,5-g]isoquinolin-5(6H)-one], for which the “Residual amount (%) of test compound … Human” value in data set [1] came to 67%. Further, the “Residual amount (%) of test compound … Mouse” value in data set [2] was 85%. The IC50 at EZH1 is 27 to 139 nM; on EZH2 it was 4.5 to 9.1 nM. Further, the GI50 in data set [3] (setting [6]) lay in the range of 5.1 to 14 nM.
